# According to ChEMBL document CHEMBL1821691, “Cytotoxic C21 and C22 terpenoid-derived metabolites from the sponge Ircinia sp” (J Nat Prod, 2011):
# How the values were obtained:
# [1] = tested on: DLD-1; assay: Cytotoxicity against human DLD1 cells by XTT reagent based automated microculture tetrazolium assay; assay type: functional, cell-based
# [2] = Cytotoxicity against human Hep3B cells by XTT reagent based automated microculture tetrazolium assay; assay type: functional, cell-based, Hep 3B2
# [3] = tested on: HepG2; assay: Cytotoxicity against human HepG2 cells by XTT reagent based automated microculture tetrazolium assay; assay type: functional, cell-based
# [4] = tested on: K562; assay: Cytotoxicity against human K562 cells by XTT reagent based automated microculture tetrazolium assay; assay type: functional, cell-based
SMILES,IC50 [1] [µM],IC50 [2] [µM],IC50 [3] [µM],IC50 [4] [µM]
C/C(=C\[C@@H](O)C/C(C)=C/CCc1ccoc1)CC[C@@H](O)[C@]1(C)CCC(=O)O1 [IRCIFORMONIN B],0.04,6.4,1,7.8
CC(=O)O[C@H](/C=C(\C)CC[C@@H](OC(C)=O)[C@]1(C)CCC(=O)O1)C/C(C)=C/CCc1ccoc1 [IRCIFORMONIN F],0.6,7,1.7,10.2
CC(=O)O[C@H](/C=C(\C)CC[C@@H](O)[C@]1(C)CCC(=O)O1)C/C(C)=C/CCc1ccoc1,0.2,10.6,2.2,9.6
C/C(=C\[C@@H](O)C/C(C)=C/CCCC(=O)CO)CC[C@@H](O)[C@]1(C)CCC(=O)O1 [IRCINOLIN A],> 20,> 20,> 20,> 20
CC(=O)O[C@H](CC/C(C)=C/[C@@H](O)C/C(C)=C/CCc1ccoc1)[C@]1(C)CCC(=O)O1,0.03,1.1,0.5,5.4
